≈ marks a conversion by molar mass, not a printed value. Calls of active or inactive are those of the source. No cut-off for these calls is given here.
Assays:
Staphylococcus aureus [1] = test: Antibacterial activity against methicillin-resistant Staphylococcus aureus isolate 7960 after 18 hrs by broth microdilution method; type: functional; conditions: isolate 7960, 18 h
Staphylococcus aureus [2] = test: Antibacterial activity against methicillin-resistant Staphylococcus aureus isolate 4023 after 18 hrs by broth microdilution method; type: functional; conditions: isolate 4023, 18 h
Staphylococcus aureus [3] = test: Antibacterial activity against methicillin-resistant Staphylococcus aureus isolate 7943 after 18 hrs by broth microdilution method; type: functional; conditions: isolate 7943, 18 h
Staphylococcus aureus [4] = test: Antibacterial activity against methicillin-resistant Staphylococcus aureus isolate 7807 after 18 hrs by broth microdilution method; type: functional; conditions: isolate 7807, 18 h
Staphylococcus aureus [5] = test: Antibacterial activity against methicillin-resistant Staphylococcus aureus isolate 5426 after 18 hrs by broth microdilution method; type: functional; conditions: isolate 5426, 18 h
Escherichia coli = test: Antibacterial activity against Escherichia coli ATCC 25922 after 18 hrs by broth microdilution method; type: functional; conditions: ATCC 25922, 18 h
Staphylococcus aureus [6] = test: Antibacterial activity against methicillin-resistant Staphylococcus aureus isolate 7813 after 18 hrs by broth microdilution method; type: functional; conditions: isolate 7813, 18 h
Staphylococcus aureus [7] = test: Antibacterial activity against methicillin-resistant Staphylococcus aureus isolate 8162 after 18 hrs by broth microdilution method; type: functional; conditions: isolate 8162, 18 h
Staphylococcus aureus [8] = test: Antibacterial activity against methicillin-resistant Staphylococcus aureus isolate 7247 after 18 hrs by broth microdilution method; type: functional; conditions: isolate 7247, 18 h
Staphylococcus aureus [9] = test: Antibacterial activity against methicillin-resistant Staphylococcus aureus isolate 7449 after 18 hrs by broth microdilution method; type: functional; conditions: isolate 7449, 18 h
Enterococcus faecium = test: Antibacterial activity against Enterococcus faecium ATCC 49624 after 18 hrs by broth microdilution method; type: functional; conditions: ATCC 49624, 18 h
Staphylococcus aureus [10] = test: Antibacterial activity against methicillin-resistant Staphylococcus aureus isolate 4548 after 18 hrs by broth microdilution method; type: functional; conditions: isolate 4548, 18 h
[11] = target: T1, Cell division protein FtsZ (Staphylococcus aureus) (UniProt P0A031); test: Inhibition of recombinant Staphylococcus aureus FtsZ polymerization at 8 ug/ml by 90 degree light scattering-based fluorescence spectrometric analysis
T1 sequence (whole entry): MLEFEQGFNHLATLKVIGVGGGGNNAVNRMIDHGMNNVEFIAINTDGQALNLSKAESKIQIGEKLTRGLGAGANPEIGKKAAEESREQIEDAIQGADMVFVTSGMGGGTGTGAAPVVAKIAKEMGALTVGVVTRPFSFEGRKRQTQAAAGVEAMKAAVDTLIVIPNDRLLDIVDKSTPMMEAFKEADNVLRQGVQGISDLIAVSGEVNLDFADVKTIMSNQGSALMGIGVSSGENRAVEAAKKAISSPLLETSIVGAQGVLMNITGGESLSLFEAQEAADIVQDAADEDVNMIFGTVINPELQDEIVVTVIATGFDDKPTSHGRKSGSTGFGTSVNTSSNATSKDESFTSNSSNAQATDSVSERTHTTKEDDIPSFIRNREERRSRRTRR

Staphylococcus aureus [12] = test: Antibacterial activity against methicillin-resistant Staphylococcus aureus isolate 4127 after 18 hrs by broth microdilution method; type: functional; conditions: isolate 4127, 18 h
Staphylococcus aureus [13] = test: Antibacterial activity against methicillin-resistant Staphylococcus aureus isolate 1428 after 18 hrs by broth microdilution method; type: functional; conditions: isolate 1428, 18 h
Staphylococcus aureus [14] = test: Antibacterial activity against methicillin-resistant Staphylococcus aureus isolate 7587 after 18 hrs by broth microdilution method; type: functional; conditions: isolate 7587, 18 h
Staphylococcus aureus [15] = test: Antibacterial activity against methicillin-resistant Staphylococcus aureus isolate 1947 after 18 hrs by broth microdilution method; type: functional; conditions: isolate 1947, 18 h
Staphylococcus aureus [16] = test: Antibacterial activity against methicillin-resistant Staphylococcus aureus isolate 7183 after 18 hrs by broth microdilution method; type: functional; conditions: isolate 7183, 18 h
Staphylococcus aureus [17] = test: Antibacterial activity against methicillin-resistant Staphylococcus aureus isolate 2158 after 18 hrs by broth microdilution method; type: functional; conditions: isolate 2158, 18 h
Staphylococcus aureus [18] = test: Antibacterial activity against methicillin-resistant Staphylococcus aureus isolate 7971 after 18 hrs by broth microdilution method; type: functional; conditions: isolate 7971, 18 h
Staphylococcus aureus [19] = test: Antibacterial activity against Staphylococcus aureus ATCC 29213 after 18 hrs by broth microdilution method; type: functional; conditions: ATCC 29213, 18 h
Staphylococcus aureus [20] = test: Antibacterial activity against methicillin-resistant Staphylococcus aureus ATCC 33591 after 18 hrs by broth microdilution method; type: functional; conditions: ATCC 33591, 18 h
Staphylococcus aureus [21] = test: Antibacterial activity against methicillin-resistant Staphylococcus aureus isolate 7664 after 18 hrs by broth microdilution method; type: functional; conditions: isolate 7664, 18 h
Staphylococcus aureus [22] = test: Antibacterial activity against methicillin-resistant Staphylococcus aureus isolate 2350 after 18 hrs by broth microdilution method; type: functional; conditions: isolate 2350, 18 h
Staphylococcus aureus [23] = test: Antibacterial activity against methicillin-resistant Staphylococcus aureus isolate 8078 after 18 hrs by broth microdilution method; type: functional; conditions: isolate 8078, 18 h
Staphylococcus aureus [24] = test: Antibacterial activity against methicillin-resistant Staphylococcus aureus isolate 7917 after 18 hrs by broth microdilution method; type: functional; conditions: isolate 7917, 18 h
Staphylococcus aureus [25] = test: Antibacterial activity against methicillin-resistant Staphylococcus aureus isolate 3123 after 18 hrs by broth microdilution method; type: functional; conditions: isolate 3123, 18 h
Staphylococcus aureus [26] = test: Antibacterial activity against methicillin-resistant Staphylococcus aureus isolate 2671 after 18 hrs by broth microdilution method; type: functional; conditions: isolate 2671, 18 h
Enterococcus faecalis [27] = test: Antibacterial activity against vancomycin-resistant Enterococcus faecalis ATCC 51575 after 18 hrs by broth microdilution method; type: functional; conditions: ATCC 51575, 18 h
Staphylococcus aureus [28] = test: Antibacterial activity against methicillin-resistant Staphylococcus aureus isolate 7864 after 18 hrs by broth microdilution method; type: functional; conditions: isolate 7864, 18 h
Staphylococcus aureus [29] = test: Antibacterial activity against methicillin-resistant Staphylococcus aureus isolate 5239 after 18 hrs by broth microdilution method; type: functional; conditions: isolate 5239, 18 h
Staphylococcus aureus [30] = test: Antibacterial activity against methicillin-resistant Staphylococcus aureus isolate 5035 after 18 hrs by broth microdilution method; type: functional; conditions: isolate 5035, 18 h
Staphylococcus aureus [31] = test: Antibacterial activity against methicillin-resistant Staphylococcus aureus isolate 7717 after 18 hrs by broth microdilution method; type: functional; conditions: isolate 7717, 18 h
Staphylococcus aureus [32] = test: Antibacterial activity against methicillin-resistant Staphylococcus aureus isolate 2931 after 18 hrs by broth microdilution method; type: functional; conditions: isolate 2931, 18 h
Staphylococcus aureus [33] = test: Ratio of MBC to MIC for methicillin-resistant Staphylococcus aureus ATCC BAA41; type: functional
[34] = test system: Staphylococcus epidermidis; test: Potency index, ratio of berberine MIC to test compound MIC for Staphylococcus epidermidis ATCC 12228; type: functional
Staphylococcus aureus [35] = test: Bactericidal activity against methicillin-resistant Staphylococcus aureus ATCC BAA41 after 18 hrs by broth microdilution method; type: functional; conditions: ATCC BAA41, 18 h
Enterococcus faecalis [36] = test: Ratio of MBC to MIC for vancomycin-resistant Enterococcus faecalis ATCC 700221; type: functional
Staphylococcus aureus [37] = test: Potency index, ratio of methicillin MIC to test compound MIC for methicillin-resistant Staphylococcus aureus ATCC 43300; type: functional
Staphylococcus aureus [38] = test: Potency index, ratio of methicillin MIC to test compound MIC for methicillin-resistant Staphylococcus aureus ATCC 33592; type: functional
Enterococcus faecalis [39] = test: Potency index, ratio of berberine MIC to test compound MIC for Enterococcus faecalis ATCC 29212; type: functional

SMILES | MIC90 (Staphylococcus aureus [1]) [µg/mL] | MIC90 (Staphylococcus aureus [2]) [µg/mL] | MIC90 (Staphylococcus aureus [3]) [µg/mL] | MIC90 (Staphylococcus aureus [4]) [µg/mL] | MIC90 (Staphylococcus aureus [5]) [µg/mL] | MIC90 (Escherichia coli) [µg/mL] | MIC90 (Staphylococcus aureus [6]) [µg/mL] | MIC90 (Staphylococcus aureus [7]) [µg/mL] | MIC90 (Staphylococcus aureus [8]) [µg/mL] | MIC90 (Staphylococcus aureus [9]) [µg/mL] | MIC90 (Enterococcus faecium) [µg/mL] | MIC90 (Staphylococcus aureus [10]) [µg/mL] | MIC90 (Staphylococcus aureus [12]) [µg/mL] | MIC90 (Staphylococcus aureus [13]) [µg/mL] | MIC90 (Staphylococcus aureus [14]) [µg/mL] | MIC90 (Staphylococcus aureus [15]) [µg/mL] | MIC90 (Staphylococcus aureus [16]) [µg/mL] | MIC90 (Staphylococcus aureus [17]) [µg/mL] | MIC90 (Staphylococcus aureus [18]) [µg/mL] | MIC90 (Staphylococcus aureus [19]) [µg/mL] | also measured
COc1cccc(OC)c1C(=O)N[C@@H]1C(=O)N2[C@@H]1SC(C)(C)[C@@H]2C(=O)O [METHICILLIN] | > 64 | > 64 | > 64 | > 64 | > 64 | 4 (≈ 10.5 µM) | > 64 | > 64 | > 64 | > 64 | 4 (≈ 10.5 µM) | > 64 | > 64 | > 64 | > 64 | > 64 | > 64 | > 64 | > 64 | 1 (≈ 2.63 µM) | inhibition [11]: inactive; MIC90 (Staphylococcus aureus [20]): > 192 µg/mL; MIC90 (Staphylococcus aureus [21]): > 64 µg/mL; MIC90 (Staphylococcus aureus [22]): > 64 µg/mL; MIC90 (Staphylococcus aureus [23]): > 64 µg/mL; MIC90 (Staphylococcus aureus [24]): > 64 µg/mL; MIC90 (Staphylococcus aureus [25]): > 64 µg/mL; MIC90 (Staphylococcus aureus [26]): > 64 µg/mL; MIC90 (Enterococcus faecalis [27]): 6 µg/mL (≈ 15.8 µM); MIC90 (Staphylococcus aureus [28]): > 64 µg/mL; MIC90 (Staphylococcus aureus [29]): > 64 µg/mL; MIC90 (Staphylococcus aureus [30]): > 64 µg/mL; MIC90 (Staphylococcus aureus [31]): > 64 µg/mL; MIC90 (Staphylococcus aureus [32]): > 64 µg/mL
FC(F)(F)c1ccc(CN2CCCN(CCc3cc(-c4cccs4)nc(-c4ccncc4)n3)CC2)cc1 | 4 (≈ 7.64 µM) | 4 (≈ 7.64 µM) | 4 (≈ 7.64 µM) | 4 (≈ 7.64 µM) | 8 (≈ 15.3 µM) | 128 (≈ 244 µM) | 8 (≈ 15.3 µM) | 4 (≈ 7.64 µM) | 4 (≈ 7.64 µM) | 4 (≈ 7.64 µM) | 4 (≈ 7.64 µM) | 4 (≈ 7.64 µM) | 4 (≈ 7.64 µM) | 4 (≈ 7.64 µM) | 4 (≈ 7.64 µM) | 4 (≈ 7.64 µM) | 4 (≈ 7.64 µM) | 4 (≈ 7.64 µM) | 4 (≈ 7.64 µM) | 4 (≈ 7.64 µM) | Ratio (Staphylococcus aureus [33]): 1; Ratio [34]: 50 - 100; MBC (Staphylococcus aureus [35]): 4 µg/mL (≈ 7.64 µM); Ratio (Enterococcus faecalis [36]): 2; MIC90 (Staphylococcus aureus [20]): 4 µg/mL (≈ 7.64 µM); MIC90 (Staphylococcus aureus [21]): 4 µg/mL (≈ 7.64 µM); MIC90 (Staphylococcus aureus [22]): 4 µg/mL (≈ 7.64 µM); Ratio (Staphylococcus aureus [37]): >100; MIC90 (Staphylococcus aureus [23]): 4 µg/mL (≈ 7.64 µM); Ratio (Staphylococcus aureus [38]): >100; MIC90 (Staphylococcus aureus [24]): 4 µg/mL (≈ 7.64 µM); Ratio (Enterococcus faecalis [39]): 50 - 100; MIC90 (Staphylococcus aureus [25]): 4 µg/mL (≈ 7.64 µM); MIC90 (Staphylococcus aureus [26]): 4 µg/mL (≈ 7.64 µM); MIC90 (Enterococcus faecalis [27]): 4 µg/mL (≈ 7.64 µM); MIC90 (Staphylococcus aureus [28]): 4 µg/mL (≈ 7.64 µM); MIC90 (Staphylococcus aureus [29]): 4 µg/mL (≈ 7.64 µM); MIC90 (Staphylococcus aureus [30]): 4 µg/mL (≈ 7.64 µM); MIC90 (Staphylococcus aureus [31]): 4 µg/mL (≈ 7.64 µM); MIC90 (Staphylococcus aureus [32]): 4 µg/mL (≈ 7.64 µM)

— ChEMBL document CHEMBL4325853, “Design, synthesis and antibacterial evaluation of 2,4-disubstituted-6-thiophenyl-pyrimidines” (Eur J Med Chem, 2019)
